Source: patent US10804000B2, “High efficiency continuous-flow production of radioisotopes” (priority 2016, dated 2020)

How the values were obtained:
[1] = Pre-irradiation solubility tests of lanthanide complexes in the water capture matrix (neutron activation analysis of washes); type: physicochemical; details: for solubility in water: in words, from pre-irradiation washes; for % Activity in wash 1: first pre-irradiation wash with 0.5 mL ultra-pure H2O, 153Sm at 103 keV, 166Ho at 81 keV; for % Activity in wash 1 / % Activity in wash 2: indicates solubility in capture matrix; for % Activity in wash 2: second pre-irradiation wash with H2O
Method: The solubility of the lanthanide complexes in the water capture matrix was determined by mixing a few milligrams of the lanthanide-containing target solid thoroughly with 0.5 mL of ultra-pure H2O then separating the solution from the solid utilizing centrifugal filter tubes (EMD Millipore). A second wash of the solid was obtained using the same procedure. The solid and the washes were submitted for neutron activation analysis in order to determine the solubility of the lanthanide containing target in H2O.
Post irradiation, the samples were left to cool for a predetermined amount of time to allow any short-lived radioisotopes to decay, before being transferred to the laboratory for treatment and analysis. The capture matrix was filtered and separated from the solid in order to separate any recoiled radiolanthanide. The solid residue and capture matrix were collected for analysis of the activity of the radiolanthanide. The pre-irradiation solubility test washes along with standards were also prepared for analysis. The samples were analyzed for radiolanthanide activity using a High Purity Germanium detector (HPGe) at the representative gamma energy of the radiolanthanide of interest.
All the samples for a particular compound were irradiated as a group, along with standards for calibration purposes and direct comparisons of activities. In samples that were not treated post irradiation by separation (e.g. as in the case of target and capture matrix) the activity of the radiolanthanide is directly related to the total concentration of the corresponding lanthanide. The count rate measured in each sample was normalized to a single point in time to account for decay during measurements. Both pre-irradiation washes were collected to give an indication of the solubility of the lanthanide complex in the capture matrix (H2O). The second wash was obtained to determine if the lanthanide activity detected in the first wash was actually due to solubility of the lanthanide containing target or due to factors such as impurities or the presence of uncomplexed lanthanide that came off in the first wash. […] Radiolanthanides that recoiled out but reformed bonds with the solid compound would appear as retained as well. […] Activity in the capture matrix may also reflect dissolution of the target matrix rather than recoil.

[2] = Irradiation of ammonium molybdate phosphate powder, 99Mo activity in washes, target and capture matrix
Excerpt: Wash 1, Wash 2, and the irradiated molybdenum target were all analyzed for ^99Mo activity using gamma spectroscopy at the prominent ^99Mo peak of 141 KeV.
Post irradiation the capture matrix was separated from the irradiation target and washed an additional time to determine post irradiation solubility (wash 1).

| Substance | solubility in water [1] | % Activity in wash 1 [1] [%] | % Activity in wash 2 [1] [%] | further results |
| --- | --- | --- | --- | --- |
| Holmium 8-hydroxyquinolinate [Compound 5] | low solubility in the first wash | – | – | – |
| Holmium 4-aminobenzoate [Compound 6] | soluble in water | 7.0 ± 1.6 | 7.7 ± 1.7 | – |
| Samarium 8-hydroxyquinolinate [Compound 4] | low | – | – | – |
| ammonium molybdate phosphate [Sample 1] | – | – | – | % Activity in wash 1 ([2]; 99Mo, sample 1: powder irradiated 15 min at 8×10^11 n cm^−2 s^−1, contacted with water post irradiation): <1%; % Activity in wash 2 ([2]; 99Mo, sample 1: powder irradiated, contacted with water post irradiation): <1%; 99Mo activity detected in the capture matrix ([2]; sample 1, water contacted post irradiation): less than 1% |
| Samarium 4-aminobenzoate [Compound 2] | soluble in water | 27.3 ± 3.0 | 26.8 ± 2.9 | – |
| ammonium molybdate phosphate [Sample 2] | – | – | – | % Activity in wash 1 ([2]; 99Mo, sample 2: irradiated in contact with water capture matrix, additional wash post irradiation): 1.3% |
